Earlier results, collected in US9186343B2, “Nanoveso™: treatment, biomarkers and diagnostic tests for liver diseases and comorbid diseases” (Nanoveson, LLC, priority 2007, dated 2015).
Several values for one entry are separate records, joined by “and”; a condition that tells them apart may be missing. Identical values can stand only once.

B1: annexin: synexin (a.k.a. annexin VII), a Ca2+ binding protein (protein, UniProt P20073 1-488, looked up)
Annexin A7: MSYPGYPPTGYPPFPGYPPAGQESSFPPSGQYPYPSGFPPMGGGAYPQVPSSGYPGAGGYPAPGGYPAPGGYPGAPQPGGAPSYPGVPPGQGFGVPPGGAGFSGYPQPPSQSYGGGPAQVPLPGGFPGGQMPSQYPGGQPTYPSQINTDSFSSYPVFSPVSLDYSSEPATVTQVTQGTIRPAANFDAIRDAEILRKAMKGFGTDEQAIVDVVANRSNDQRQKIKAAFKTSYGKDLIKDLKSELSGNMEELILALFMPPTYYDAWSLRKAMQGAGTQERVLIEILCTRTNQEIREIVRCYQSEFGRDLEKDIRSDTSGHFERLLVSMCQGNRDENQSINHQMAQEDAQRLYQAGEGRLGTDESCFNMILATRSFPQLRATMEAYSRMANRDLLSSVSREFSGYVESGLKTILQCALNRPAFFAERLYYAMKGAGTDDSTLVRIVVTRSEIDLVQIKQMFAQMYQKTLGTMIAGDTSGDYRRLLLAIVGQ

Assays:
[1] = tested on: chromaffin granules; conditions: most effective fusogen of 23 compounds
[2] = tested on: human prostate cancer cells; conditions: in vitro at micromolar concentrations
[3] = presence of annexin

| Molecule | minimum concentration as fusogen [1] | human prostate cancer cell growth [2] | increase of the aggregation rate [3] |
| --- | --- | --- | --- |
| CCCCC/C=C\C/C=C\C/C=C\C/C=C\CCCC(=O)O [AA, Arachidonic Acid (n-6 20:4)] | 2 ug/ml and 6.6 uM | effective stimulator | – |
| B1 | – | – | up to 100 fold |
